Values after ≈ are worked out from the molar mass of the structure shown. Active and inactive are the calls of the source. No cut-off for these calls is given here.
Experiments:
[1] = Antibacterial activity against vancomycin-intermediate resistant Staphylococcus aureus Mu50 ATCC 700699 at 10 uM by disc diffusion method; assay type: functional, Staphylococcus aureus subsp. aureus Mu50; settings: read-out: DIZ
Staphylococcus aureus [2] = experiment: Antibacterial activity against methicillin-susceptible Staphylococcus aureus ATCC 29213 at 10 uM by disc diffusion method; assay type: functional; settings: read-out: DIZ
Staphylococcus aureus [3] = experiment: Antibacterial activity against methicillin-resistant Staphylococcus aureus BAA-1747 at 10 uM by disc diffusion method; assay type: functional; settings: read-out: DIZ
Enterobacter cloacae = experiment: Antibacterial activity against Enterobacter cloacae ATCC 23355 at 10 uM by disc diffusion method; assay type: functional; settings: read-out: DIZ
[4] = Antibacterial activity against Bacillus anthracis Sterne 34F2 at 10 uM by disc diffusion method; assay type: functional, Bacillus anthracis str. Sterne; settings: read-out: DIZ
Klebsiella pneumoniae = experiment: Antibacterial activity against ESBL-producer Klebsiella pneumoniae K6 700603 at 10 uM by disc diffusion method; assay type: functional; settings: read-out: DIZ
Acinetobacter baumannii [5] = experiment: Antibacterial activity against ciprofloxacin-resistant Acinetobacter baumannii BAA-1605 at 10 uM by disc diffusion method; assay type: functional; settings: read-out: DIZ
Enterococcus faecium = experiment: Antibacterial activity against vancomycin-resistant Enterococcus faecium ATCC 700221 at 10 uM by disc diffusion method; assay type: functional; settings: read-out: DIZ
Acinetobacter baumannii [6] = experiment: Antibacterial activity against Acinetobacter baumannii ATCC 19606 at 10 uM by disc diffusion method; assay type: functional; settings: read-out: DIZ
Pseudomonas aeruginosa = experiment: Antibacterial activity against Pseudomonas aeruginosa ATCC 15442 at 10 uM by disc diffusion method; assay type: functional; settings: read-out: DIZ
Enterococcus faecalis = experiment: Antibacterial activity against vancomycin-susceptible Enterococcus faecalis ATCC 29212 at 10 uM by disc diffusion method; assay type: functional; settings: read-out: DIZ
[7] = system: Staphylococcus epidermidis; experiment: Antibacterial activity against Staphylococcus epidermidis ATCC 14990 at 10 uM by disc diffusion method; assay type: functional; settings: read-out: DIZ
Staphylococcus aureus [8] = experiment: Antibacterial activity against Staphylococcus aureus after overnight incubation in presence of antioxidant vitamin E by double-diffusion assay; assay type: functional
Staphylococcus aureus [9] = experiment: Antibacterial activity against Staphylococcus aureus after overnight incubation in presence of GSH by double-diffusion assay; assay type: functional
Staphylococcus aureus [10] = experiment: Bactericidal activity against methicillin-resistant Staphylococcus aureus BAA-1747 by broth microdilution method; assay type: functional
Staphylococcus aureus [11] = experiment: Bactericidal activity against methicillin-susceptible Staphylococcus aureus ATCC 29213 by broth microdilution method; assay type: functional
[12] = Antibacterial activity against vancomycin-intermediate resistant Staphylococcus aureus Mu50 ATCC 700699 by broth microdilution method; assay type: functional, Staphylococcus aureus subsp. aureus Mu50
[13] = Glutathione reactivity assessed as formation of S-(propylthio)glutathione and ciprofloxacin at 1 uM after 2 hrs by ESI-positive MS method
Staphylococcus aureus [14] = experiment: Antibacterial activity against methicillin-susceptible Staphylococcus aureus ATCC 29213 by broth microdilution method; assay type: functional
[15] = Bactericidal activity against vancomycin-intermediate resistant Staphylococcus aureus Mu50 ATCC 700699 by broth microdilution method; assay type: functional, Staphylococcus aureus subsp. aureus Mu50
Staphylococcus aureus [16] = experiment: Ratio of MBC to MIC for methicillin-resistant Staphylococcus aureus BAA-1747; assay type: functional
Staphylococcus aureus [17] = experiment: Induction of reactive oxygen species formation in Staphylococcus aureus at 25 uM after 0.5 hrs by DCFH-DA probe-based fluorometric assay relative to control; assay type: functional
Staphylococcus aureus [18] = experiment: Ratio of MBC to MIC for methicillin-susceptible Staphylococcus aureus ATCC 29213; assay type: functional
Staphylococcus aureus [19] = experiment: Ratio of MBC to MIC for vancomycin-intermediate resistant Staphylococcus aureus Mu50 ATCC 700699; assay type: functional
Staphylococcus aureus [20] = experiment: Antibacterial activity against methicillin-resistant Staphylococcus aureus BAA-1747 by broth microdilution method; assay type: functional

SMILES	zone of inhibition at 10 µM [1]	zone of inhibition at 10 µM (Staphylococcus aureus [2])	zone of inhibition at 10 µM (Staphylococcus aureus [3])	zone of inhibition at 10 µM (Enterobacter cloacae)	zone of inhibition at 10 µM [4]	zone of inhibition at 10 µM (Klebsiella pneumoniae)	zone of inhibition at 10 µM (Acinetobacter baumannii [5])	zone of inhibition at 10 µM (Enterococcus faecium)	zone of inhibition at 10 µM (Acinetobacter baumannii [6])	zone of inhibition at 10 µM (Pseudomonas aeruginosa)	zone of inhibition at 10 µM (Enterococcus faecalis)	zone of inhibition at 10 µM [7]	further results
O=C(O)c1cn(C2CC2)c2cc(N3CCN(Sc4ccc(Cl)cc4)CC3)c(F)cc2c1=O	12 mm	21 mm	17 mm	22 mm	34 mm	20 mm	0 mm	8 mm	20 mm	26 mm	20 mm	29 mm	–
CCCSN1CCN(c2cc3c(cc2F)c(=O)c(C(=O)O)cn3C2CC2)CC1	11 mm	29 mm	24 mm	29 mm	38 mm	25 mm	0 mm	0 mm	27 mm	32 mm	28 mm	37 mm	Activity (Staphylococcus aureus [8]): Active; Activity (Staphylococcus aureus [9]): Active; MBC (Staphylococcus aureus [10]): 1.56 µM (≈ 0.633 µg/mL); MBC (Staphylococcus aureus [11]): 0.2 µM (≈ 0.0811 µg/mL); MIC [12]: 50 µM (≈ 20.3 µg/mL); Drug metabolism [13]: Metabolite detected; MIC (Staphylococcus aureus [14]): 0.1 µM (≈ 0.0405 µg/mL); MBC [15]: 50 µM (≈ 20.3 µg/mL); Ratio (Staphylococcus aureus [16]): 1; fold change (FC) (Staphylococcus aureus [17]): 2 - 3; Ratio (Staphylococcus aureus [18]): 2; Ratio (Staphylococcus aureus [19]): 1; MIC (Staphylococcus aureus [20]): 1.56 µM (≈ 0.633 µg/mL)
O=C(O)c1cn(C2CC2)c2cc(N3CCN(Sc4ccccc4[N+](=O)[O-])CC3)c(F)cc2c1=O	0 mm	18 mm	19 mm	19 mm	27 mm	9 mm	0 mm	0 mm	19 mm	9 mm	20 mm	23 mm	–
CCC(C)SN1CCN(c2cc3c(cc2F)c(=O)c(C(=O)O)cn3C2CC2)CC1 (stereo not given)	11 mm	24 mm	23 mm	23 mm	35 mm	20 mm	0 mm	8 mm	22 mm	27 mm	22 mm	32 mm	–
CCSN1CCN(c2cc3c(cc2F)c(=O)c(C(=O)O)cn3C2CC2)CC1	11 mm	24 mm	22 mm	25 mm	37 mm	23 mm	0 mm	0 mm	24 mm	32 mm	25 mm	32 mm	–
CSN1CCN(c2cc3c(cc2F)c(=O)c(C(=O)O)cn3C2CC2)CC1	11 mm	24 mm	23 mm	23 mm	36 mm	22 mm	10 mm	0 mm	23 mm	29 mm	21 mm	33 mm	–
CCCCSN1CCN(c2cc3c(cc2F)c(=O)c(C(=O)O)cn3C2CC2)CC1	11 mm	22 mm	20 mm	25 mm	37 mm	21 mm	0 mm	0 mm	22 mm	28 mm	23 mm	34 mm	–
O=C(O)c1cn(C2CC2)c2cc(N3CCN(Sc4ccc([N+](=O)[O-])cc4)CC3)c(F)cc2c1=O	11 mm	29 mm	24 mm	23 mm	32 mm	21 mm	0 mm	8 mm	23 mm	27 mm	25 mm	36 mm	–
CC(C)SN1CCN(c2cc3c(cc2F)c(=O)c(C(=O)O)cn3C2CC2)CC1	10 mm	21 mm	23 mm	25 mm	36 mm	23 mm	0 mm	0 mm	23 mm	31 mm	23 mm	34 mm	–
CCCCCCSN1CCN(c2cc3c(cc2F)c(=O)c(C(=O)O)cn3C2CC2)CC1	9 mm	18 mm	18 mm	19 mm	30 mm	16 mm	0 mm	8 mm	15 mm	23 mm	15 mm	26 mm	–
CN[C@H](CC(C)C)C(=O)N[C@H]1C(=O)N[C@@H](CC(N)=O)C(=O)N[C@H]2C(=O)N[C@H]3C(=O)N[C@H](C(=O)N[C@H](C(=O)O)c4cc(O)cc(O)c4-c4cc3ccc4O)[C@H](O)c3ccc(c(Cl)c3)Oc3cc2cc(c3O[C@@H]2O[C@H](CO)[C@@H](O)[C@H](O)[C@H]2O[C@H]2C[C@](C)(N)[C@H](O)[C@H](C)O2)Oc2ccc(cc2Cl)[C@H]1O [VANCOMYCIN]	–	–	–	–	–	–	–	–	–	–	–	–	MBC (Staphylococcus aureus [10]): 0.1 µM (≈ 0.145 µg/mL); MBC (Staphylococcus aureus [11]): 0.1 µM (≈ 0.145 µg/mL); MIC [12]: 0.78 µM (≈ 1.13 µg/mL); MIC (Staphylococcus aureus [14]): 0.1 µM (≈ 0.145 µg/mL); MBC [15]: 0.78 µM (≈ 1.13 µg/mL); Ratio (Staphylococcus aureus [16]): 1; Ratio (Staphylococcus aureus [18]): 1; Ratio (Staphylococcus aureus [19]): 1; MIC (Staphylococcus aureus [20]): 0.1 µM (≈ 0.145 µg/mL)
O=C(O)c1cn(C2CC2)c2cc(N3CCNCC3)c(F)cc2c1=O [CIPROFLOXACIN]	9 mm	23 mm	20 mm	–	34 mm	22 mm	0 mm	0 mm	23 mm	29 mm	22 mm	–	Activity (Staphylococcus aureus [8]): Active; Activity (Staphylococcus aureus [9]): Active; MBC (Staphylococcus aureus [10]): 3.13 µM (≈ 1.04 µg/mL); MBC (Staphylococcus aureus [11]): 0.78 µM (≈ 0.258 µg/mL); MIC [12]: 50 µM (≈ 16.6 µg/mL); MIC (Staphylococcus aureus [14]): 0.1 µM (≈ 0.0331 µg/mL); MBC [15]: 50 µM (≈ 16.6 µg/mL); fold change (FC) (Staphylococcus aureus [17]): 2 - 3; MIC (Staphylococcus aureus [20]): 1.56 µM (≈ 0.517 µg/mL)
O=C(O)c1cn(C2CC2)c2cc(N3CCN(Sc4ccccc4)CC3)c(F)cc2c1=O	12 mm	21 mm	22 mm	26 mm	36 mm	20 mm	0 mm	10 mm	23 mm	27 mm	20 mm	23 mm	–
CC(C)C(C)SN1CCN(c2cc3c(cc2F)c(=O)c(C(=O)O)cn3C2CC2)CC1 (stereo not given)	9 mm	28 mm	23 mm	29 mm	32 mm	26 mm	0 mm	0 mm	26 mm	31 mm	25 mm	29 mm	–
